Test results as given in BindingDB's records for doi:10.1021/ja058636j (Purdue University, 2006).

Key:
Assay in all cases: Enzyme Inhibition Measurements
Conditions in all cases: pH 4.5; 37 °C
[1] = target: Cathepsin D (Homo sapiens, UniProt P07339)
Description: (§1) Enzyme activities were assayed by monitoring the hydrolysis of substrate in the presence or absence of inhibitor compounds. The hydrolysis was recorded as the increase in fluorescence intensity over a 10 min time period. […] The Ki was calculated by using Ki = IC50/ (1 + [S]/Km), and a Km value determined according to Michaelis-Menten.

[2] = target: Beta-secretase 1 (Homo sapiens, UniProt P56817)
Description: as §1

[3] = target: T1, Beta-secretase 2 (Homo sapiens, UniProt Q9Y5Z0)
T1 sequence (Q9Y5Z0 whole entry): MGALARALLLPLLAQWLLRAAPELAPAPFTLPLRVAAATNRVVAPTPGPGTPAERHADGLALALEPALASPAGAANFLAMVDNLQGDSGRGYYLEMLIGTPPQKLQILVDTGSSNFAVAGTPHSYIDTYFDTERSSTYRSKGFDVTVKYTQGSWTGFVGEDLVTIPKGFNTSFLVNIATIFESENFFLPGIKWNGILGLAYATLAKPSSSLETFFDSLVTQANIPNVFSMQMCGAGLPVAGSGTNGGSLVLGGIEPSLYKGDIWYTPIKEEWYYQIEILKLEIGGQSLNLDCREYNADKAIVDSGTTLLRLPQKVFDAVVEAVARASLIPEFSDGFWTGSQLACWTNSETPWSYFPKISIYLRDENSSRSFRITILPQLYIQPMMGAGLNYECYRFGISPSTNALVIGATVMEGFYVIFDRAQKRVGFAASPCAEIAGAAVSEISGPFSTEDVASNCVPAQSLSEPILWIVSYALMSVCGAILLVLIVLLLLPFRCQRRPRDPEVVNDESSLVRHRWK
Description: as §1

Sequence of Beta-secretase 1 (P56817 whole entry): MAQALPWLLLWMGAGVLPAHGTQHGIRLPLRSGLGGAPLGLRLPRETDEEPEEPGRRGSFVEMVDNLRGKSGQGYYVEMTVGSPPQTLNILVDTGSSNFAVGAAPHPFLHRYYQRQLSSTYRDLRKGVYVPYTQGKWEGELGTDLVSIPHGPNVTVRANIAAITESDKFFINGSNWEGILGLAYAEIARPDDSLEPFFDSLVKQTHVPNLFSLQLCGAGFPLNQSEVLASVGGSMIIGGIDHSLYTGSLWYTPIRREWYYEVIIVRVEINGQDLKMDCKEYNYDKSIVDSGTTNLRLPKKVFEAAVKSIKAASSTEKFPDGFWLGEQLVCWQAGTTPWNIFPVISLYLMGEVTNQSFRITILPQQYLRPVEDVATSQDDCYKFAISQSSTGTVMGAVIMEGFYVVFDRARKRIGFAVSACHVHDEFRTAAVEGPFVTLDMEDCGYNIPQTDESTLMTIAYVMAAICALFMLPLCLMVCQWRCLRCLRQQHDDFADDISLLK
Sequence of Cathepsin D (P07339 65-162 limits assumed): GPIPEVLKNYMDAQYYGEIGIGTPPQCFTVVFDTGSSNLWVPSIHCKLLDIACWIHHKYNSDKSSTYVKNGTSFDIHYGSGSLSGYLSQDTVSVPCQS
Sequence of Cathepsin D (P07339 169-412 limits assumed): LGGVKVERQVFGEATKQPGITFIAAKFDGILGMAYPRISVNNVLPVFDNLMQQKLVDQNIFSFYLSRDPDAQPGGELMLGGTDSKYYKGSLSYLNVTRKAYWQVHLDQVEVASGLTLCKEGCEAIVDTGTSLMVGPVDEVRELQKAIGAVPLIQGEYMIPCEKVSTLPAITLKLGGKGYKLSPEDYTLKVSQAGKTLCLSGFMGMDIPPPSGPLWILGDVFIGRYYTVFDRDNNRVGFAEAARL

| SMILES | Ki [1] | Ki [2] | Ki [3] |
| --- | --- | --- | --- |
| Cc1nc(COC(=O)N[C@@H](CS(C)(=O)=O)C(=O)N[C@@H](CC(C)C)[C@@H](O)C[C@@H](C)C(=O)N[C@H](C(=O)NCC(C)C)C(C)C)c(C)o1 [N2-[(2R,4S,5S)-5-{[N-{[(2,5-dimethyl-1,3-oxazol-4-yl)methoxy]carbonyl}-3-(methylsulfonyl)-L-alanyl]amino}-4-hydroxy-2,7-dimethyloctanoyl]-N-(2-methylpropyl)-L-valinamide] | 304 nM | 0.12 nM | 458 nM |
| CSC[C@H](NC(=O)OCn1nc(C)cc1C)C(=O)N[C@@H](CC(C)C)[C@@H](O)C[C@@H](C)C(=O)N[C@H](C(=O)NCC(C)C)C(C)C [(3,5-dimethyl-1H-pyrazol-1-yl)methyl N-[(1R)-1-{[(1R,3S,4S)-3-hydroxy-1,6-dimethyl-1-{[(1S)-2-methyl-1-[(2-methylpropyl)carbamoyl]propyl]carbamoyl}heptan-4-yl]carbamoyl}-2-(methylsulfanyl)ethyl]carbamate] | 15 nM | 4.4 nM | 161 nM |
| CSCC[C@H](NC(=O)OCn1nc(C)cc1C)C(=O)N[C@@H](CC(C)C)[C@@H](O)C[C@@H](C)C(=O)N[C@H](C(=O)NCc1ccccc1)C(C)C [(3,5-dimethyl-1H-pyrazol-1-yl)methyl N-[(1S)-1-{[(1R,3S,4S)-1-{[(1S)-1-(benzylcarbamoyl)-2-methylpropyl]carbamoyl}-3-hydroxy-1,6-dimethylheptan-4-yl]carbamoyl}-3-(methylsulfanyl)propyl]carbamate] | 25 nM | 14 nM | – |
